Assay results from US6384236B1, “N-(aroyl)glycine hydroxamic acid derivatives and related compounds” (Pfizer Inc, priority 1995, dated 2002).

melting point: 156 to 168 °C
Compound: COc1ccc(C(=O)NCC(=O)O)cc1OC1CCCC1 [Example 17]
